According to patent US8071540B2, “Virus derived antimicrobial peptides” (priority 2007, dated 2011):
“Also recorded” adds a separate entry of the source. Where no end group is shown, it is not given here.

Experiments:
[1] = test system: Pseudomonas aeruginosa; assay: Bacterial lysis (broth dilution) assay, MBC; type: cell-based; design: MBC, Psuedomonas aeruginosa, 0 mM NaCl / MBC, Psuedomonas aeruginosa, 150 mM NaCl: unit not given here; conditions: for MBC, Psuedomonas aeruginosa, 0 mM NaCl: 0 mM NaCl (10 mM phosphate buffer); for MBC, Psuedomonas aeruginosa, 0 mM NaCl / MBC, Psuedomonas aeruginosa, 150 mM NaCl: 99.9% killing; for MBC, Psuedomonas aeruginosa, 150 mM NaCl: 150 mM NaCl (physiologic)
[2] = test system: Staphylococcus aureus; assay: Bacterial lysis (broth dilution) assay, MBC; type: cell-based; conditions: for MBC, Staphylococcus aureus, 0 mM NaCl: 0 mM NaCl (10 mM phosphate buffer); for MBC, Staphylococcus aureus, 0 mM NaCl / MBC, Staphylococcus aureus, 150 mM NaCl: 99.9% killing; for MBC, Staphylococcus aureus, 150 mM NaCl: 150 mM NaCl (physiologic)
Excerpt: The assays for growth inhibition of a microbial target can be used to derive a minimum bactericidal concentration (MBC) value for the peptide, i.e., the concentration of peptide required to kill 99.9% (3-log decrease) of the microbial sample being tested. This value is well known to those in the art as representative of the effectiveness of a particular antimicrobial agent (e.g., an antibiotic) against a particular organism or group of organisms. In assays to detect the MBC of a peptide, growth inhibition of a bacterial population also can be measured with reference to the number of colony forming units (cfu) after exposure to a peptide relative to a control experiment without a peptide.
Bacterial lysis assay. Bacterial lysis assays were conducted in a manner similar to that described previously (Lehrer, R. I., M. E. Selsted, D. Szklarek, and F. J. 1983. Infect. Immun. 42: 10-4, 1983; Miller, M. A., R. F. Garry, J. M. Jaynes, and R. C. Montelaro, AIDS Res Hum Retroviruses 7:511-519, 1991). Bacterial suspensions were cultured in Luria-Bertani Broth to mid-log growth phase and washed by two cycles of centrifugation and suspension in 10 mM phosphate buffer. The Abs600 of the suspension was adjusted with 10 mM phosphate buffer such that, upon dilution, 5-10×10^5 cfu/mL would be treated in the assay. Bacteria were incubated for 1 h with two-fold dilutions of peptides (100 μM to 100 nM) in 96-well plates using 10 mM phosphate buffer, pH 7.2, as a diluent. Ten-fold dilutions of bacteria were performed to 1:1 000; a 100 μl aliquot from each condition was spread on the surface of tryptic soy agar plates (Difco, Detroit, Mich.) which were incubated overnight. Colonies of surviving bacteria (cfu, colony-forming units) were counted and compared to untreated controls to determine the amount of peptide-induced killing under each condition. Log killing is defined as the log of the ratio of cfu present before and after treatment with peptide. The minimal bactericidal concentration, MBC, is the peptide concentration at which 99.9% (three log) killing is achieved (Pearson et al., Antimicrob. Agents Chemother. 18: 699-708, 1980).
Results. Representative gram positive (S. aureus) and gram negative (P. aeruginosa) clinical isolates were used as the index bacteria to survey the peptides described herein.
A limitation of many host-derived antimicrobial peptides is their decreased activity at physiologic (150 mM) NaCl concentration. See Friedrich et al., Antimicrobial Agents and Chemotherapy 43:1542-1548. The peptides WLSA-5 (SEQ ID NO: 3) and LL37 were tested against the two index strains at physiologic NaCl. […] The activity of antimicrobial peptides described herein were compared to an expanded list of clinical bacterial isolates. These are summarized in Table 2 by comparing their MBCs in phosphate buffer alone (low salt) and phosphate buffer containing 150 mM NaCl (physiologic conditions). Inspection of this table would lead one skilled in the art to conclude that the activity of antimicrobial peptides described herein compare favorably to the host derived antimicrobial peptides as it relates to the spectrum and potency of antimicrobial activity.

[3] = test system: Methicillin Resistant S. aureus; type: cell-based, Staphylococcus aureus; design: unit not given here; conditions: 99.9% killing; for MBC, Methicillin Resistant S. aureus, 0 mM NaCl: 0 mM NaCl (10 mM phosphate buffer); for MBC, Methicillin Resistant S. aureus, 150 mM NaCl: 150 mM NaCl (physiologic)
[4] = test system: differentiated primary human airway epithelial cells; assay: CF cell culture model: transepithelial resistance as peptide toxicity
[5] = test system: Burkholderia cepacia; type: cell-based; conditions: standard broth dilution, FIG. 7
[6] = test system: P. aeruginosa attached to differentiated human bronchial epithelial cells; assay: CF cell culture model: killing of bacteria bound to airway epithelial cells; type: cell-based, Pseudomonas aeruginosa; conditions: increasing peptide concentration, co-culture, FIG. 9
[7] = phosphate buffer with 150 mM NaCl versus low salt

Row | Substance | MBC, Psuedomonas aeruginosa, 0 mM NaCl [1] | MBC, Psuedomonas aeruginosa, 150 mM NaCl [1] | MBC, Staphylococcus aureus, 0 mM NaCl [2] | MBC, Staphylococcus aureus, 150 mM NaCl [2] | MBC, Methicillin Resistant S. aureus, 0 mM NaCl [3] | MBC, Methicillin Resistant S. aureus, 150 mM NaCl [3] | P. aeruginosa killing, influence of physiologic NaCl [1, 7] | change in transepithelial resistance ([4]; at a decrease in bacterial counts by two orders of magnitude) | effect on trans-epithelial resistance ([4]; compared with LL-37) | S. aureus killing, influence of physiologic NaCl [2, 7] | activity against B. cepacia clinical isolate [5] | viability of bacteria bound to epithelial cells [6]
1 | RVVRVVRRVVRRVRRVVRRVVRVVRRVVRRVRRVVRRVVRVVRRVVRR [LBU-4] | 800 | 400 | 800 nM | 800 nM | – | – | – | – | – | – | – | –
2 | RVVRV VRRWV RR (RVVRVVRRWVRR; Antimicrobial peptide) [WLBU-1] | 400 | 2500 | 30,000 nM | 10,000 nM | 50,000 | 50,000 | – | – | – | – | – | –
3 | RVVRVVRRWVRRVRRVWRRVVRVVRRWVRRVRRVWRRVVRVVRRWRVV (RVVRVVRRWVRRVRRVWRRVVRVVRRWVRRVRRVWRRVVRVVRRWRVV; Antimicrobial peptide) [WLBU-4] | 1500 | 400 | 3,000 nM | 600 nM | 1500 | 200 | – | – | – | – | – | –
4 | RWIRVVQRWCRAIRHIWRRIRQGLRRWLRVV [WLSA-5, RWIRVVQRWCRAIRHIWRRIRQGLRRWLRVV] | 1000 | 1000 | 1000 nM | 1000 nM | 150 | – | not affected by NaCl inclusion; also recorded: maintained its activity in low and physiologic salt conditions | less than 50% | transient and not significantly different from LL-37 | not influenced by NaCl in the same way as LL37; also recorded: maintained its activity in low and physiologic salt conditions | significantly more active than LSA-5 | decrease in bacterial viability
5 | VRRVVRRVVRVVRRVVRRVRRVVRRVVRVV RRVVRR (VRRVVRRVVRVVRRVVRRVRRVVRRVVRVVRRVVRR; Antimicrobial peptide) [LBU-3] | 1500 | 800 | 1500 nM | 1500 nM | – | – | – | – | – | – | – | –
6 | VRRVWRRVVRVVRRWVRRVRRVWRRVVRVV RRWVRR (VRRVWRRVVRVVRRWVRRVRRVWRRVVRVVRRWVRR; Antimicrobial peptide) [WLBU-3] | 1500 | 800 | 3,000 nM | 600 nM | 400 | 100 | – | – | – | – | – | –
